Where two headings read alike, the source gives them in different places.
Columns and labels:
[1] = tested on: Gli1; test: Gli1 mRNA expression by RT-PCR / real-time RT-PCR in TRAMP-C2 cells; type: cell-based, mouse; conditions: for suppression of Gli1 mRNA concentration compared with cyclopamine 30 μM: TRAMP-C2, time course 72 hrs, genistein 50 μM, EGCG 100 μM, FIG. 7A
Protocol: (§1) It has been shown that phytoestrogens in common herbs regulate prostate cancer cell growth in vitro (Shenouda et al., 2004). In order to determine whether these phytoestrogens also regulate cells derived from the mouse model of prostate cancer, the TRAMP-C2 cell line was treated with the soy phytoestrogen genistein and growth inhibition IC50 doses were determined (FIG. 4). Effects of the phytoestrogens genistein and EGCG on expression of these Hedgehog-pathway components were also determined by quantitative RT-PCR. Cyclopamine was used as a control. […] GAPDH was used as an internal control.
Another experiment was carried out to determine the dosage response of these phytoestrogen on Gli1 expression in the TRAMP-C2 cell line. Increasing amounts of genistein or EGCG were added to cell cultures of TRAMP-C2, and the levels of Gli1 mRNA was determined by real time RT-PCR. The results of this experiment verifies a correlation between phytoestrogen treatment and Hedgehog activity (FIG. 6).
In order to test whether the inhibitory effect of genistein on Gli1 transcription is through ERα or ERβ, experiments were conducted to determine whether 17β-estradiol (E2) works in the same manner as genistein (FIG. 7C).

[2] = tested on: Hedgehog signaling pathway; test: Hedgehog pathway repression, approximate IC50 from RT-PCR; type: cell-based, mouse; conditions: read-out: Approximate IC50 for pathway repression
Protocol: Another experiment was carried out to determine the dosage response of these phytoestrogen on Gli1 expression in the TRAMP-C2 cell line. […] The results of this experiment verifies a correlation between phytoestrogen treatment and Hedgehog activity (FIG. 6). […] These concentrations may be easily obtainable pharmacologically in humans.

[3] = tested on: Gli1 protein in LNCaP cells; test: Gli1 protein concentration in LNCaP cells by Western blot; type: cell-based, human
Protocol: (§2) Approximate IC50 values for pathway repression were determined as 30 μM for genistein, 20 μM for EGCG, and 5 μM for resveratrol. These concentrations may be easily obtainable pharmacologically in humans. […] Thus, Genistein, EGCG, and resveratrol may regulate prostate cancer via inhibition of the Hedgehog signaling pathway.

[4] = tested on: Patched1; test: Patched1 mRNA levels by RT-PCR; type: cell-based, mouse
Protocol: as §1, §2

[5] = tested on: TRAMP-C2 cells; test: Growth of TRAMP-C2 cell line (total cellular protein); type: cell-based, mouse
Protocol: as §1

[6] = tested on: Hedgehog pathway activity in Shh Light II cells; test: Shh Light II Gli1-responsive luciferase reporter assay; type: cell-based; conditions: Shh Light II cells with sonic hedgehog protein, 24 hours, FIG. 7B
Protocol: The effects of various phytoestrogens on Hedgehog signaling in a non-tumor cell line Shh Light II were also assessed (FIG. 7B). Shh Light II cells were obtained from the ATCC. These cells, containing the Gli1 responsive promoter driving a luciferase reporter, are a standard tool used to assay Hedgehog pathway activity. Meloni et al., 2006. Cells were allowed to reach confluency in 24-well plates and subsequently treated with the selected phytoestrogens at the amount indicated on the figure, along with the stimulatory sonic hedgehog protein (obtained from R&D Systems). The cells were then grown for 24 hours in phenol red-free DMEM supplemented with 0.5% charcoal stripped fetal bovine serum. Cells were then lysed, and the luciferase and renilla activities of the cell lysates were measured.

[7] = tested on: xenograft tumors; conditions: mice; cited from earlier work
[8] = in vivo; cited from earlier work
[9] = tested on: poorly differentiated carcinoma in TRAMP mouse; conditions: TRAMP mouse model; cited from earlier work
[10] = tested on: prostate tumor in ERβKO/TRAMP mice; test: Prostate tumorigenesis in ERβKO/TRAMP mice fed genistein diet; type: in vivo, mouse
Protocol: (§3) The influence of estrogen on prostate cancer has been previously described in the Background section. In order to determine the effect of genistein on prostate tumor development in the TRAMP model, in the first experiment, groups of ˜30 male mice, either ERαKO/TRAMP, ERβKO/TRAMP or ERWT/TRAMP were fed diets containing 0 or 300 mg genistein/kg (See Table 1). Mice were fed the diets from weaning and were euthanized at 5 months of age. Prostates were dissected and prepared for histopathology. The tumor stage was assessed using ratings of normal (N), hyperplasia (HYP), prostatic intraepithelial neoplasia (PIN), well differentiated carcinoma (WDC), moderately differentiated carcinoma (MDC) or poorly differentiated carcinoma (PDC) See Wechter et al., 2000; also see http://thegreenberglab.fhcrc.org. To summarize the data, non-cancer was defined as N, HYP or PIN and cancer was defined as WDC, MDC or PDC (Table 1) The prostate tumor incidence was compared between mice fed with genistein diet and those fed with casein.

[11] = tested on: estrogen receptor alpha (ERα) and beta (ERβ); conditions: cited from earlier work
[12] = tested on: prostate tumor in ERαKO/TRAMP mice; test: Prostate tumorigenesis in ERαKO/TRAMP mice fed genistein diet; type: in vivo, mouse
Protocol: as §3

[13] = tested on: prostate tumor in ERWT/TRAMP mice; test: Prostate tumorigenesis in ERWT/TRAMP mice fed genistein diet; type: in vivo, mouse
Protocol: as §3

[14] = ERβKO/TRAMP, 300 mg genistein/kg diet, 5 months of age
[15] = ERαKO/TRAMP, 300 mg genistein/kg diet, 5 months of age
[16] = ERWT/TRAMP, 300 mg genistein/kg diet, 5 months of age

Question: With `C[C@]12CC[C@@H]3c4ccc(O)cc4CC[C@H]3[C@@H]1CC[C@@H]2O` [E2, 17β-estradiol, reference compound] as the compound, how does the “inhibition of Gli1 expression” value ([1]; TRAMP-C2 cells, 10 nM, 24 hours, FIG. 7C) read?
Answer: Strong inhibition

Question: Which “suppression of Gli1 mRNA concentration compared with cyclopamine 30 μM” value [1] does the source give for `O=C(O[C@@H]1Cc2c(O)cc(O)cc2O[C@@H]1c1cc(O)c(O)c(O)c1)c1cc(O)c(O)c(O)c1` [EGCG] here?
Answer: more pronounced

Question: What about the “expression of Gli1, Gli2 and Gli3” value ([1]; TRAMP-C2 cells) of the same compound?
Answer: down-regulate

Question: What about the IC50 ([2]; RT-PCR) of the same compound?
Answer: ~20 µM

Question: What about the Gli1 protein concentration [3] of the same compound?
Answer: significantly reduced

Question: And the “reduction of Patched1 mRNA levels” value [4]?
Answer: 70%

Question: And the “proliferation of TRAMP-C2 cells” value [5]?
Answer: inhibited

Question: With `COc1cc(/C=C/C(=O)CC(=O)/C=C/c2ccc(O)c(OC)c2)ccc1O` [curcumin] as the compound, how does the “hedgehog activity (luciferase reporter activity)” value [6] read?
Answer: inhibit

Question: For `CC1=C2C[C@H]3[C@@H](CC=C4C[C@@H](O)CC[C@@]43C)[C@@H]2CC[C@]12O[C@@H]1C[C@H](C)CN[C@H]1[C@H]2C` [cyclopamine], which “effect on xenograft tumors” value [7] is on record?
Answer: complete regression

Question: And the “birth defects in the progeny” value [8]?
Answer: cause birth defects, most notably cyclopia

Question: With `O=c1c(-c2ccc(O)cc2)coc2cc(O)cc(O)c12` [genistein] as the compound, how does the “effect on poorly differentiated carcinoma” value [9] read?
Answer: protective effect

Question: What about the “protective effect on prostate tumor incidence versus casein diet” value ([10]; ERβKO/TRAMP mice, 300 mg genistein/kg diet from weaning to 5 months) of the same compound?
Answer: not

Question: What about the “HYP (2), number of mice” value [10, 14] of the same compound?
Answer: 0

Question: What about the “MDC (5), number of mice” value [10, 14] of the same compound?
Answer: 0

Question: And the “Normal (Stage1), number of mice” value [10, 14]?
Answer: 0

Question: And the “PDC (6), incidence” value [10, 14]?
Answer: 48%

Question: And the “PDC (6), number of mice” value [10, 14]?
Answer: 10

Question: What about the “PIN (3), incidence” value [10, 14] of the same compound?
Answer: 19%

Question: What about the “PIN (3), number of mice” value [10, 14] of the same compound?
Answer: 4

Question: What about the “WDC (4), incidence” value [10, 14] of the same compound?
Answer: 33%

Question: And the “WDC (4), number of mice” value [10, 14]?
Answer: 7

Question: What about the “suppression of Gli1 mRNA concentration compared with cyclopamine 30 μM” value [1] of the same compound?
Answer: more pronounced

Question: And the “expression of Gli1, Gli2 and Gli3” value ([1]; TRAMP-C2 cells)?
Answer: down-regulate

Question: What about the “Gli1 expression compared to the untreated control” value ([1]; TRAMP-C2 cells, RT-PCR, FIG. 5, GAPDH internal control) of the same compound?
Answer: down-regulates

Question: And the “effect of addition of genistein on inhibition of Gli1 expression by E2” value ([1]; TRAMP-C2 cells, with 10 nM E2, FIG. 7C)?
Answer: did not enhance

Question: What about the IC50 ([2]; Mus musculus) of the same compound?
Answer: ~30 µM

Question: What about the “binding to ERα and ERβ” value [11] of the same compound?
Answer: bind both receptors with a higher affinity for ERβ

Question: And the Gli1 protein concentration [3]?
Answer: significantly reduced

Question: And the “protective effect on prostate tumor incidence versus casein diet” value ([12]; ERαKO/TRAMP mice, 300 mg genistein/kg diet from weaning to 5 months)?
Answer: not

Question: What about the “HYP (2), number of mice” value [12, 15] of the same compound?
Answer: 0

Question: And the “MDC (5), incidence” value [12, 15]?
Answer: 3.8%

Question: What about the “MDC (5), number of mice” value [12, 15] of the same compound?
Answer: 1

Question: And the “Normal (Stage1), incidence” value [12, 15]?
Answer: 3.8%

Question: And the “Normal (Stage1), number of mice” value [12, 15]?
Answer: 1

Question: What about the “PDC (6), number of mice” value [12, 15] of the same compound?
Answer: 0

Question: What about the “PIN (3), incidence” value [12, 15] of the same compound?
Answer: 3.8%

Question: And the “PIN (3), number of mice” value [12, 15]?
Answer: 1

Question: What about the “WDC (4), incidence” value [12, 15] of the same compound?
Answer: 88.6%

Question: What about the “WDC (4), number of mice” value [12, 15] of the same compound?
Answer: 23

Question: What about the “reduction of Patched1 mRNA levels” value [4] of the same compound?
Answer: 70%

Question: And the “hedgehog activity (luciferase reporter activity)” value [6]?
Answer: inhibit

Question: What about the “proliferation of TRAMP-C2 cells” value [5] of the same compound?
Answer: inhibited

Question: What about the “protective effect on prostate tumor incidence versus casein diet” value ([13]; ERWT/TRAMP mice, 300 mg genistein/kg diet from weaning to 5 months) of the same compound?
Answer: significant protective effect

Question: What about the “HYP (2), incidence” value [13, 16] of the same compound?
Answer: 28%

Question: What about the “HYP (2), number of mice” value [13, 16] of the same compound?
Answer: 15

Question: And the “MDC (5), incidence” value [13, 16]?
Answer: 2%

Question: And the “MDC (5), number of mice” value [13, 16]?
Answer: 1

Question: And the “Normal (Stage1), number of mice” value [13, 16]?
Answer: 0

Question: And the “PDC (6), incidence” value [13, 16]?
Answer: 24%

Question: And the “PDC (6), number of mice” value [13, 16]?
Answer: 13

Question: What about the “PIN (3), incidence” value [13, 16] of the same compound?
Answer: 33%

Question: What about the “PIN (3), number of mice” value [13, 16] of the same compound?
Answer: 18

Question: And the “WDC (4), incidence” value [13, 16]?
Answer: 13%

Question: And the “WDC (4), number of mice” value [13, 16]?
Answer: 7

Question: Which “reduction of Gli1 mRNA” value ([1]; RT-PCR) does the source give for `Oc1ccc(C=Cc2cc(O)cc(O)c2)cc1` [resveratrol] here?
Answer: 60%

Question: And the IC50 ([2]; Mus musculus, RT-PCR)?
Answer: ~5 µM

Question: What about the Gli1 protein concentration [3] of the same compound?
Answer: significantly reduced

Question: And the “reduction of Patched1 mRNA levels” value [4]?
Answer: 50%

Reference: patent publication US20090054517A1, “Phytoestrogens As Regulators Of Hedgehog Signaling And Methods Of Their Use In Cancer Treatment” (priority 2007, published 2009)
